{"source": "patent US8791269B2", "about": "“Complex of amorphous tomoxiprole and cyclodextrin with fast dissolution rate and process for the preparation thereof” (Fondazione Istituto Insubrico di Ricerca per la Vita, priority 2011, dated 2014)", "key": {"in vivo": {"experiment": "in vivo", "conditions": "rat, po, 5 mg/kg", "experimental": "To assess whether the faster dissolution rate observed for the complex actually corresponds to a faster in vivo absorption, the pharmacokinetic behaviour of tomoxiprole (TMX) and tomoxiprole-2-hydroxypropyl-beta-cyclodextrin complex (TMX/HPBCD) in rats have been compared.\nExperimental design: Two groups of four rats each have been used. To the rats of each group was orally given either a dose of 5 mg/Kg of tomoxiprole or a dose of complex tomoxiprole-2-hydroxypropyl-beta-ciclodestrin corresponding to 5 mg/Kg of active substance. […] Samples of blood were collected at 0.3, 0.6, 1, 1.5, 2 and 6 hours, and plasma separated by centrifugation. Sample processing and HPLC analyses were performed as previously described (A. Bernareggi et al. J. liquid chromatography 1984, 7, 2093-2101). The pharmacokinetic parameters calculated from the plasma levels of tomoxiprole observed with the two formulations are reported in the following Table 2"}, "[1]": {"conditions": "orally administered; cited from earlier work"}, "[2]": {"conditions": "active doses; cited from earlier work"}, "[3]": {"experiment": "Dissolution rate in buffer solution HCl-KCl pH 1.5", "assay_type": "physicochemical", "conditions": "for Substance dissolved (concentration of tomoxiprole): buffer HCl-KCl pH 1.5", "experimental": "The dissolution rate of the complex tomoxiprole-2-hydroxypropyl-beta-cyclodextrin obtained in Example 1 is determined by the following method.\nIn a flask provided with magnetic mixer 600 mg of tomoxiprole-2-hydroxypropyl-beta-cyclodextrin complex (corresponding to 100 mg of tomoxiprole) are added to 10 ml of a buffer solution HCl—KCl pH 1.5. Samples of the suspension are collected at intervals of time, clarified by centrifugation and the tomoxiprole concentration in the clear supernatant is determined by UV absorption at 328 nm.\nThe method was the same of that described above, with the exception that 100 mg of tomoxiprole were added instead of 600 mg of complex tomoxiprole/HPBCD"}, "[4]": {"experiment": "Surface wettability (water contact angle)", "assay_type": "physicochemical", "conditions": "at any pH"}}}
{"compound": "COc1ccc(-c2nc3c4ccccc4ccc3n2C(C)C)cc1", "note": "[Tomoxiprole crystals, 2-(4-methoxyphenyl)-3-(1-methylethyl)-3H-naphth[1,2-d] imidazole]", "values": [{"measurement": "AUC", "setting": "in vivo", "result": 46, "unit": "ng·h/mL"}, {"measurement": "AUC(0-t)", "setting": "in vivo", "result": 1170, "unit": "ng·h/mL"}, {"measurement": "Cmax", "setting": "in vivo", "result": 220, "unit": "ng/mL"}, {"measurement": "Tmax", "setting": "in vivo", "result": 1.5, "unit": "h"}, {"measurement": "Time of maximum concentration in the blood after administration", "setting": "[1]", "result": "over one hour"}, {"measurement": "Ulcerogenic activity", "setting": "[2]", "result": "devoid of ulcerogenic activity"}, {"measurement": "Time at which the saturation concentration is reached", "setting": "[3]; buffer pH 1.5", "result": "over 8 min"}, {"measurement": "Substance dissolved (concentration of tomoxiprole)", "setting": "[3]; time 0.5 min", "result": 1, "unit": "mg/mL"}, {"measurement": "Substance dissolved (concentration of tomoxiprole)", "setting": "[3]; time 2 min", "result": 3, "unit": "mg/mL"}, {"measurement": "Substance dissolved (concentration of tomoxiprole)", "setting": "[3]; time 4 min", "result": 4, "unit": "mg/mL"}, {"measurement": "Substance dissolved (concentration of tomoxiprole)", "setting": "[3]; time 8 min", "result": 4.9, "unit": "mg/mL"}, {"measurement": "Substance dissolved (concentration of tomoxiprole)", "setting": "[3]; time 12 min", "result": 5.2, "unit": "mg/mL"}, {"measurement": "Water contact angle", "setting": "[4]", "result": 81, "unit": "°"}]}
